Experiment [1] deals with T1, AXL (Homo sapiens, UniProt P30530).
T1 sequence (P30530 26-894): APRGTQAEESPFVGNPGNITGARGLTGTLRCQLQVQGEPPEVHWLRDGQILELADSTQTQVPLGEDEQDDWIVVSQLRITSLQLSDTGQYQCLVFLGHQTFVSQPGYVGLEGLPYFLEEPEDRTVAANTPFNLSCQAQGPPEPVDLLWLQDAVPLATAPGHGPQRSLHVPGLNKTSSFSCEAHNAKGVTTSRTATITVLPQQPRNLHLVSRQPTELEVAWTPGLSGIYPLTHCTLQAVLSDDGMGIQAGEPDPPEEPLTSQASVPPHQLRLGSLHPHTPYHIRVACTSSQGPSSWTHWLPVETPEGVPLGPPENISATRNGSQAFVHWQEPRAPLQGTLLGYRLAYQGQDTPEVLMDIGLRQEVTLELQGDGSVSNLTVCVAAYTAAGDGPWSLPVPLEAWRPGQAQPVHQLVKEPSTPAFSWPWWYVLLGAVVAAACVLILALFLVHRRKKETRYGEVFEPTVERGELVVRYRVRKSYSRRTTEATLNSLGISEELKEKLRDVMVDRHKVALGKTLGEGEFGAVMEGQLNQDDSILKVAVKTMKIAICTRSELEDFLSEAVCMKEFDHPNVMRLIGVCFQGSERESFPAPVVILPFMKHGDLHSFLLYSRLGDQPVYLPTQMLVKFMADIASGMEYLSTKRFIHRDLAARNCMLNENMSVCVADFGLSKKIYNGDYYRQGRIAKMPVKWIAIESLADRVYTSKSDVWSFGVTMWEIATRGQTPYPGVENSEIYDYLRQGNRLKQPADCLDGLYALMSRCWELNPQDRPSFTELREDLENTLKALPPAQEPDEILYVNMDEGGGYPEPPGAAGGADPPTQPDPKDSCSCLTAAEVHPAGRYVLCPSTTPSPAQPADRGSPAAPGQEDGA
Kind of experiment: TR-FRET kinase activity assay, AXL. The format is biochemical. The conditions noted are these: ATP at Km, 60 minutes. Put shortly: (§1)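 Recombinant human kinases, fluorescent peptide substrate, ATP at Km; 1 h RT, pH 7.5. EDTA-quenched, Eu antibody added, TR-FRET read; IC50 determined.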
Background: Time-resolved FRET reads energy transfer from a long-lived donor to a nearby acceptor.

Experiment [2] has as its target T2, FLT3 (Homo sapiens, UniProt P36888).
T2 sequence (P36888 27-993): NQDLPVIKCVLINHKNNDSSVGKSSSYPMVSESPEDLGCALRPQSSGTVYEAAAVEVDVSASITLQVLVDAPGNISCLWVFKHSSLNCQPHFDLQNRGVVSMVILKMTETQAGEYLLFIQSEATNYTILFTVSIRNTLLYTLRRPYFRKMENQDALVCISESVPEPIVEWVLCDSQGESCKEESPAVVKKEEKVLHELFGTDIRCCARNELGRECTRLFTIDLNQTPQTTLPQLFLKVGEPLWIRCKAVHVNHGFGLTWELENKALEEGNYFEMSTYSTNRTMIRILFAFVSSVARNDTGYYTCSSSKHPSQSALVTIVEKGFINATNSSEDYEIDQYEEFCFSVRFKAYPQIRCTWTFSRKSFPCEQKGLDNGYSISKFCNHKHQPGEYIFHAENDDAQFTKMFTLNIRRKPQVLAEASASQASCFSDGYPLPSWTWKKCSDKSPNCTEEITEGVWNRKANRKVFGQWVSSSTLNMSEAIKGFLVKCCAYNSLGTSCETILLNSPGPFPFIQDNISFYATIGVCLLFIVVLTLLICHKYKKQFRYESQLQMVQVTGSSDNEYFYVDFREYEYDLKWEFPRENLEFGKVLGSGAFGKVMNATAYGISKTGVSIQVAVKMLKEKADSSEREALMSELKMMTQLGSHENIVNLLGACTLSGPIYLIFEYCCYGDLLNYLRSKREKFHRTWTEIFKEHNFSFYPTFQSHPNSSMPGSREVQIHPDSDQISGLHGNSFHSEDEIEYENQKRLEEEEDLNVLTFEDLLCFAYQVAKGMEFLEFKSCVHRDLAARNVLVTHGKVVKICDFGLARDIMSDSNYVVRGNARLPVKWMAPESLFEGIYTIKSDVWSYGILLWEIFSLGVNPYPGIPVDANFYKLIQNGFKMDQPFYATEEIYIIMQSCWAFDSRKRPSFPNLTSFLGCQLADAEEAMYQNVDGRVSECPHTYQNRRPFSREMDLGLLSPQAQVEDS
Description: TR-FRET kinase activity assay, FLT3. The conditions noted are these: ATP at Km, 60 minutes. The format is biochemical. The method, boiled down: as §1

Consider `C[C@@H](CC(F)(F)F)Nc1ncc2c(C3=CCN(C(=O)OC(C)(C)C)CC3)cc([C@H]3CC[C@H](O)CC3)n2n1` [Compound 412], for which the half-inhibitory concentration (IC50) in experiment [1] and in experiment [2] was ≤ 100 nM each time.
For `COCC(C)Nc1ncc2c(-c3cnn(CC4CCCO4)c3)cc(C3CCC(O)CC3)n2n1` (centres unmarked) [Compound 379], the IC50 (as a rule, the midpoint of a concentration-inhibition curve) in experiment [1] is ≤ 100 nM; in experiment [2], 100 to 1000 nM.
For the compound `COCC(C)Nc1ncc2c(C3CCCN(C(C)=O)C3)cc(C3CCC(O)CC3)n2n1` (centres unmarked) [Compound 371], the IC50 in experiment [1] and in experiment [2] was 1000 to 10000 nM throughout.
For `COC[C@H](C)Nc1ncc2c(-c3cnn([C@@H]4CCC(C(=O)OC(C)(C)C)C4)c3)cc([C@H]3CC[C@H](O)CC3)n2n1` (some centres unmarked) [Compound 364], the IC50 in experiment [1] and in experiment [2] was ≤ 100 nM each time.
Consider `CNC(=O)c1cc(-c2cc([C@H]3CC[C@H](O)CC3)n3nc(N[C@@H](C)CC(F)(F)F)ncc23)cc(C)n1` [Compound 353], for which the IC50 in experiment [1] and in experiment [2] was 100 to 1000 nM each time.
As for `CC[C@H](C)Nc1ncc2c(-c3cncc(S(C)(=O)=O)c3)cc([C@H]3CC[C@H](O)CC3)n2n1` [Compound 119], the values for the IC50 in experiment [1] and in experiment [2] were 100 to 1000 nM and 1000 to 10000 nM, respectively.
Turning to `CC(=O)N1CCN(Cc2ccc(-c3cc([C@H]4CC[C@H](O)CC4)n4nc(N[C@@H](C)COC(F)F)ncc34)cc2)CC1` [Compound 413], the IC50 in experiment [1] and in experiment [2] was ≤ 100 nM throughout.
Turning to `COC[C@H](C)Nc1ncc2c(-c3cnn(C4(C(=O)N5CCCC5)CC4)c3)cc([C@H]3CC[C@H](O)CC3)n2n1` [Compound 408], the IC50 in experiment [1] was ≤ 100 nM; in experiment [2], 100 to 1000 nM.
Regarding `COC[C@H](C)Nc1ncc2c([C@@H]3CCN(S(C)(=O)=O)C3)cc([C@H]3CC[C@H](O)CC3)n2n1` [Compound 375], the IC50 was in the range of 100 to 1000 nM in experiment [1] and 1000 to 10000 nM in experiment [2].
With `C[C@@H](COC(F)F)Nc1ncc2c(-c3ccnc(N4CCOCC4)c3)cc([C@H]3CC[C@H](O)CC3)n2n1` [Compound 405], the IC50 in experiment [1] and in experiment [2] was ≤ 100 nM throughout.
As to `COCC(C)Nc1ncc2c(-c3cnn(C(C)(C)C(=O)N4CCOC(C)(C)C4)c3)cc(C3CCC(O)CC3)n2n1` (centres unmarked) [Compound 366], the IC50 in experiment [1] was ≤ 100 nM; in experiment [2], 1000 to 10000 nM.
For `CC[C@H](C)Nc1ncc2c(-c3cncc(S(C)(=O)=O)c3)cc([C@H]3CC[C@@H](O)CC3)n2n1` [Compound 120], the IC50 lay within 100 to 1000 nM in experiment [1] and 1000 to 10000 nM in experiment [2].
Take `COC[C@H](C)Nc1ncc2c(-c3ccnc(OC4CCNCC4)c3)cc([C@H]3CC[C@H](O)CC3)n2n1` [Compound 369]: the IC50 in experiment [1] is ≤ 100 nM; in experiment [2], 100 to 1000 nM.
As to `COC[C@H](C)Nc1ncc2c(-c3cnn(CC4CCCO4)c3)cc([C@H]3CC[C@H](O)CC3)n2n1` (some centres unmarked) [Compound 380], the figures for the IC50 in experiment [1] and in experiment [2] were ≤ 100 nM and 100 to 1000 nM, respectively.
As to `COCC(C)Nc1ncc2c(C3CCN(C(C)=O)C3)cc(C3CCC(O)CC3)n2n1` (mixture of isomers) [Compound 383], the figures for the 50% inhibitory concentration (IC50) in experiment [1] and in experiment [2] were 100 to 1000 nM and 1000 to 10000 nM, respectively.
`COC[C@H](C)Nc1ncc2c([C@@H]3CCCN(C(C)=O)C3)cc([C@H]3CC[C@H](O)CC3)n2n1` [Compound 372]: the IC50 in experiment [1] and in experiment [2] was 1000 to 10000 nM in each case.
As for `COC[C@H](C)Nc1ncc2c(-c3ccnc(O[C@@H]4CCCNC4)c3)cc([C@H]3CC[C@H](O)CC3)n2n1` [Compound 390], the IC50 in experiment [1] is ≤ 100 nM; in experiment [2] it was 100 to 1000 nM.
Turning to `COC[C@H](C)Nc1ncc2c(-c3cnn(CCC#N)c3)cc([C@H]3CC[C@](C)(O)CC3)n2n1` [Compound 382], the IC50 in experiment [1] is ≤ 100 nM; in experiment [2] it was 100 to 1000 nM.
The matching figures for `O[C@H]1CC[C@H](c2cc(-c3ccnc(N4CCOCC4)c3)c3cnc(NCCC(F)(F)F)nn32)CC1` [Compound 363]: ≤ 100 nM and ≤ 100 nM.
As to `COC[C@H](C)Nc1ncc2c(-c3ccnc(N4CCOCC4)c3)cc([C@H]3CC[C@H](O)CC3)n2n1` [Compound 355], the IC50 in experiment [1] and in experiment [2] was ≤ 100 nM throughout.
Take `CNS(=O)(=O)c1ccc(-c2cc([C@H]3CC[C@H](O)CC3)n3nc(N[C@@H](C)CC(F)(F)F)ncc23)cn1` [Compound 360]: the IC50 in experiment [1] and in experiment [2] was ≤ 100 nM in each case.
Take `COC[C@H](C)Nc1ncc2c(-c3ccnc(O[C@H]4CCCN(C)C4)c3)cc([C@H]3CC[C@H](O)CC3)n2n1` [Compound 403]: the IC50 in experiment [1] was ≤ 100 nM; in experiment [2] it was 100 to 1000 nM.
As to `COC[C@H](C)Nc1ncc2c(-c3cnn(CC4COC4)c3)cc([C@H]3CC[C@H](O)CC3)n2n1` [Compound 420], the figures for the concentration for half-maximal inhibition (IC50) in experiment [1] and in experiment [2] were ≤ 100 nM and 100 to 1000 nM, respectively.
As for `COC[C@H](C)Nc1ncc2c(-c3ccnc(O[C@H]4CCCNC4)c3)cc([C@H]3CC[C@H](O)CC3)n2n1` [Compound 389], the IC50 in experiment [1] was ≤ 100 nM; in experiment [2] it was 100 to 1000 nM.
As to `CCCCC[C@H](C)Nc1ncc2c(C3=CCC(C(=O)O)CC3)cc([C@H]3CC[C@H](O)CC3)n2n1` (stereo partly drawn) [Compound 122, 4-(2-((S)-heptan-2-ylamino)-7-((trans)-4-hydroxycyclohexyl)pyrrolo[2,1-f][1,2,4]triazin-5-yl)cyclohex-3-enecarboxylic acid], the IC50 in experiment [1] is ≤ 100 nM; in experiment [2] it was 100 to 1000 nM.
For `COC[C@H](C)Nc1ncc2c(-c3ccnc(N[C@@H]4CCOC4)c3)cc([C@H]3CC[C@H](O)CC3)n2n1` [Compound 416], in that order: ≤ 100 nM and 100 to 1000 nM.
Turning to `COC[C@H](C)Nc1ncc2c(-c3ccnc(C)c3)cc([C@H]3CC[C@@](C)(O)CC3)n2n1` [Compound 381], the IC50 was ≤ 100 nM in experiment [1] and 1000 to 10000 nM in experiment [2].
Regarding `COC[C@H](C)Nc1ncc2c(-c3cnn(CC4CCOCC4)c3)cc([C@H]3CC[C@H](O)CC3)n2n1` [Compound 392], the IC50 in experiment [1] and in experiment [2] was ≤ 100 nM each time.
Turning to `CNC(=O)c1ncc(-c2cc([C@H]3CC[C@H](O)CC3)n3nc(N[C@@H](C)CC(F)(F)F)ncc23)cn1` [Compound 347], the IC50 in experiment [1] and in experiment [2] was ≤ 100 nM in each case.
`COCC(C)Nc1ncc2c(C3CCN(c4ccnc(C)n4)C3)cc(C3CCC(O)CC3)n2n1` (centres unmarked) [Compound 373]: the IC50 in experiment [1] lay in the range of 100 to 1000 nM; in experiment [2], 1000 to 10000 nM.
For the compound `CC(COC(F)F)Nc1ncc2c(-c3cnn(C(C)(C)C(=O)N4CCOCC4)c3)cc(C3CCC(O)CC3)n2n1` (centres unmarked) [Compound 393], the IC50 in experiment [1] and in experiment [2] was ≤ 100 nM in each case.
In the case of `CNC(=O)c1ncc(-c2cc([C@H]3CC[C@H](O)CC3)n3nc(N[C@@H](C)COC(F)F)ncc23)cn1` [Compound 407], the results for the IC50 in experiment [1] and in experiment [2] were ≤ 100 nM and 100 to 1000 nM, respectively.
Regarding `COC[C@H](C)Nc1ncc2c(-c3ccnc(O[C@@H]4CCCN(C)C4)c3)cc([C@H]3CC[C@H](O)CC3)n2n1` [Compound 404], the IC50 in experiment [1] is ≤ 100 nM; in experiment [2], 100 to 1000 nM.
Turning to `COC[C@H](C)Nc1ncc2c(-c3ccc(CN4CCN(C)CC4)cc3)cc([C@H]3CC[C@H](O)CC3)n2n1` (single isomer, unassigned) [Compound 124], the IC50 was ≤ 100 nM in experiment [1] and 100 to 1000 nM in experiment [2].

For the origin of these results see patent US11040981B2, “Pyrrolotriazine compounds and methods of inhibiting TAM kinases” (Syros Pharmaceuticals, Inc., priority 2017, dated 2021).
